These results are taken from patent US6900344B2, “Method of preparing alkylated salicylamides via a dicarboxylate intermediate” (Emisphere Technologies, Inc., priority 2000, dated 2005).

The data set is described as follows: solubility in DMAC. The note with it: in DMAC (dimethylacetamide).

As to `O=c1[nH]c(=O)c2ccccc2o1` [carsalam, 2H-1,3-benzoxazine-2,4(3H)-dione], the solubility result is given as “about 30%”.
